# Laboratory results taken from patent publication US10799467B2, “Use of the phytocannabinoid cannabidivarin (CBDV) in the treatment of epilepsy” (GW Pharma Limited, priority 2010, dated 2020).
# Marks after values point to notes of the source that are not given here.
# How the values were obtained:
# [1] = tested on: epileptiform burst activity in hippocampal slices (Mg2+-free model); experiment: Mg2+-free in vitro epileptiform model in hippocampal brain slices (multi-electrode array); assay type: cell-based, Wistar rats
# Protocol: (§1) Use of isolated CBDV in two in vitro epileptiform models in hippocampal brain slices
# (§2) Hippocampal slices were produced acutely from P>21 Wistar rats and activity recorded by multi-electrode arrays (MEA).
# (§3) To induce epileptiform activity, either Mg^2+ was removed (Mg^2+-free model) or 100 μM 4-aminopyridine was added (4-AP model). 30 min after epileptiform burst activity was established, CBDV was added cumulatively (1, 10, 100 μM; 30 min each).
# (§4) The effects of CBDV on epileptiform burst amplitude and duration were measured (Table 2.1).
# [2] = Observation of side effects in all experiments with isolated CBDV and CBDV BDS; assay type: in vivo; settings: all experiments using isolated CBDV and CBDV BDS
# [3] = tested on: MES-induced seizure; experiment: Maximal electroshock seizure (MES) model of epilepsy; assay type: in vivo, Mouse/ICR; settings: for Incidence of Tonic convulsion: Table 10.2, 10 mice per group, vehicle 9/10
# Protocol: The vehicle used in this study was 2:1:17 (ethanol:Cremophor:0.9% ^w/v, NaCl). The test compounds used were cannabidiol (CBD) and cannabidivarin (CBDV). These were made to a solution at the highest concentration; these were then dissolved in ethanol before combination with Cremophor and 0.9% NaCl in the proportion described above. The CBD or CBDV were administered intraperitoneally at a volume of 10 ml/kg body weight. The SAED valproic acid (VBA) was dissolved in saline.
# Animal Species/Strain: Mouse/ICR, Microbiological grade: SPF, Supplier: SLC Japan, Inc. […] Temperature: 23±2° C., Humidity: 60±10%, Light conditions: 7 AM to 7 PM for the light period, 7 PM to 7 AM for the dark period. Chow and water: Free access to CRF-1 (Oriental Yeast Co, Ltd) and tap water.
# One day before each experiment, mice were weighed and randomized into several groups in each test. On the morning of the experiment day, body weight was measured in order to calculate the administration volume of each animal. Vehicle, CBD, CBDV or valproic acid sodium salt was interperitoneally administered 30 minutes before electric stimuli. Maximal electroshock seizures (MES) in mice was induced by a stimulator (UGO BASILE ECT UNIT 7801, Italia) using a current of 30 mA delivered with a pulse frequency of 100 Hz for 200 msec through earlap electrodes.
# All statistical analyses were performed using SAS Software for Windows, Release 9.1 (SAS Institute Japan). The difference of the number (hindlimb extension or deaths) in each group was assessed using two-tailed Fisher's exact test.
# [4] = tested on: pilocarpine-induced seizures; experiment: Pilocarpine model of epilepsy; assay type: in vivo; settings: CBDV 50 and 100 mg/kg IP; pilocarpine 380 mg/kg IP
# Protocol: Isolated CBDV was injected intra-peritoneally (IP) in the standard vehicle (1:1:18 ethanol:Cremophor:0.9%^w/v NaCl) at doses of 50, 100 and 200 mg/kg alongside animals that received vehicle alone at a matched volume. 15 minutes later methylscopolamine (1 mg/kg; to reduce peripheral muscarinic effects of pilocarpine) was administered followed, 45 minutes later by pilocarpine (380 mg/kg, IP) administration.
# [5] = tested on: epileptiform burst activity in hippocampal slices (4-AP model); experiment: 4-AP in vitro epileptiform model in hippocampal brain slices (multi-electrode array); assay type: cell-based, Wistar rats
# Protocol: as §1, §2, §3, §4
# [6] = tested on: PTZ-induced seizures; experiment: CBDV with standard anti-epileptic drugs in the PTZ model of generalised seizures; assay type: in vivo, Wistar rats
# Protocol: As described in Example 2 above. Varying doses of the SAED's ethosuximide and valproate were tested in combination to isolated CBDV at a dose of 200 mg/kg.
# [7] = tested on: pilocarpine-induced seizures; experiment: CBDV with standard anti-epileptic drugs in the pilocarpine model of epilepsy; assay type: in vivo
# Text: These two drugs are representative of two classes of anti-convulsants which have different mechanisms of action.
# [8] = valproate (varying doses) co-administered with CBDV 200 mg/kg
# [9] = CBDV 200 mg/kg with valproate at various doses
smiles,measurement,setting,value
"C=C(C)[C@@H]1CCC(C)=C[C@H]1c1c(O)cc(CCC)cc1O [CBDV, Cannabidivarin]",Burst amplitude (% of control) CA1,[1]; CBDV 1 μM,82.23 ± 10.4 % of control
same,Burst duration (% of control) CA1,[1]; CBDV 1 μM,99.3 ± 4.5 % of control
same,Burst amplitude (% of control) CA3,[1]; CBDV 1 μM,112.7 ± 13.7 % of control
same,Burst duration (% of control) CA3,[1]; CBDV 1 μM,101.7 ± 2.3 % of control
same,Burst amplitude (% of control) DG,[1]; CBDV 1 μM,89.8 ± 8.6 % of control
same,Burst duration (% of control) DG,[1]; CBDV 1 μM,90.6 ± 4.5 % of control
same,Burst amplitude (% of control) CA1,[1]; CBDV 10 μM,79.9 ± 6.9 % of control
same,Burst duration (% of control) CA1,[1]; CBDV 10 μM,91.2 ± 3.8 % of control
same,Burst amplitude (% of control) CA3,[1]; CBDV 10 μM,104.8 ± 10.3 % of control
same,Burst duration (% of control) CA3,[1]; CBDV 10 μM,93.9 ± 4.1 % of control
same,Burst amplitude (% of control) DG,[1]; CBDV 10 μM,86.4 ± 3.6 % of control
same,Burst duration (% of control) DG,[1]; CBDV 10 μM,92.0 ± 3.2 % of control
same,Burst amplitude (% of control) CA1,[1]; CBDV 100 μM,80.4 ± 8.0 % of control
same,Burst duration (% of control) CA1,[1]; CBDV 100 μM,74.0 ± 5.8 % of control
same,Burst amplitude (% of control) CA3,[1]; CBDV 100 μM,102.9 ± 13.0 % of control
same,Burst duration (% of control) CA3,[1]; CBDV 100 μM,78.5 ± 6.6 % of control
same,Burst amplitude (% of control) DG,[1]; CBDV 100 μM,79.5 ± 5.6 % of control
same,Burst duration (% of control) DG,[1]; CBDV 100 μM,75.6 ± 5.4 % of control
same,notable side effects,[2],did not exhibit any notable side effects
same,Incidence of Tonic convulsion,[3]; 50 mg/kg i.p.,9/10
same,Incidence of Tonic convulsion,[3]; 100 mg/kg i.p.,3/10*
same,Incidence of Tonic convulsion,[3]; 200 mg/kg i.p.,3/10*
same,inhibition of the expression of hindlimb extension,[3]; CBDV 100 and 200 mg/kg IP,significantly inhibited
same,mortality,[4],decreased
same,Burst amplitude (% of control) CA1,[5]; CBDV 1 μM,89.3 ± 5.6 % of control
same,Burst duration (% of control) CA1,[5]; CBDV 1 μM,104.3 ± 8.0 % of control
same,Burst amplitude (% of control) CA3,[5]; CBDV 1 μM,103.0 ± 5.8 % of control
same,Burst duration (% of control) CA3,[5]; CBDV 1 μM,91.0 ± 6.0 % of control
same,Burst amplitude (% of control) DG,[5]; CBDV 1 μM,94.2 ± 3.0 % of control
same,Burst duration (% of control) DG,[5]; CBDV 1 μM,95.7 ± 5.9 % of control
same,Burst amplitude (% of control) CA1,[5]; CBDV 10 μM,88.3 ± 5.2 % of control
same,Burst duration (% of control) CA1,[5]; CBDV 10 μM,85.9 ± 6.2 % of control
same,Burst amplitude (% of control) CA3,[5]; CBDV 10 μM,121.9 ± 17.0 % of control
same,Burst duration (% of control) CA3,[5]; CBDV 10 μM,82.5 ± 4.8 % of control
same,Burst amplitude (% of control) DG,[5]; CBDV 10 μM,91.2 ± 4.9 % of control
same,Burst duration (% of control) DG,[5]; CBDV 10 μM,83.8 ± 4.4 % of control
same,Burst amplitude (% of control) CA1,[5]; CBDV 100 μM,89.5 ± 5.3 % of control
same,Burst duration (% of control) CA1,[5]; CBDV 100 μM,85.9 ± 5.8 % of control
same,Burst amplitude (% of control) CA3,[5]; CBDV 100 μM,110.3 ± 7.0 % of control
same,Burst duration (% of control) CA3,[5]; CBDV 100 μM,79.7 ± 5.4 % of control
same,Burst amplitude (% of control) DG,[5]; CBDV 100 μM,95.9 ± 4.3 % of control
same,Burst duration (% of control) DG,[5]; CBDV 100 μM,83.4 ± 4.1 % of control
same,"severity of the epilepsy, CBDV compared with SAED",[6]; CBDV 200 mg/kg,lessen the severity of the epilepsy to a greater degree than the existing epileptic drug valproate
same,mortality (independent effect when co-administered),[6]; [8],significant decreases
same,onset latency (independent effect when co-administered),[6]; [8],significant decreases
same,seizure severity (independent effect when co-administered),[6]; [8],significant decreases
same,seizure severity,[7]; CBDV 200 mg/kg with phenobarbital at various doses,significantly decreases
same,mortality (independent effect),[7]; [9],significant decrease
same,seizure severity (independent effect),[7]; [9],independent and positive effects
same,bilateral seizure incidence,"[7]; CBDV 200 mg/kg, particularly with high dose Valproate (250 mg/kg)",significantly decreased
same,CBDV interaction (alone) with clonic tonic seizure,"[7]; CBDV 200 mg/kg, valproate study",statistically significant
